Measurements published in publication PMC9784969, “SARS-CoV-2 Inhibitors Identified by Phenotypic Analysis of a Collection of Viral RNA-Binding Molecules” (Pharmaceuticals, 2022).
Like-named read-outs stand apart in the source and are kept apart here.

Key:
[1] = system: 3_SL1+2 RNA; assay type: binding
[2] = in vitro; details: African green monkey, uninfected Vero E6 cells
[3] = system: 3_S2m RNA; assay: ligand-based 1H NMR (1D, CPMG, wLOGSY); assay type: binding, SARS-CoV-2
[4] = system: SCoV2 USA-WA1/2020; assay type: cell-based
[5] = system: 5_SL2+3 RNA; assay: ligand-based 1H NMR (1D, CPMG, wLOGSY); assay type: binding, SARS-CoV-2
[6] = system: SCoV2 RNA elements; assay: ligand-based 1H NMR (1D, CPMG, wLOGSY), six RNA elements compared; assay type: binding, SARS-CoV-2; details: CSP, LB, CPMG and wLOGSY perturbations; 300 µM compound
Description: We first used ligand-based ^1H NMR experiments to analyze the interaction of the selected compounds with each of the six RNA elements specified above, including one-dimensional, Carr–Purcell–Meiboom–Gill (CPMG) and waterLOGSY (wLOGSY) experiments. These assays detect changes in the ^1H signals of the ligand upon RNA association (Figure 4A), and have been successfully used to evaluate small-molecule binding to RNA motifs, including elements of the SCoV2 genome.
Each ligand (at a concentration of 300 μM) was mixed with a smaller quantity of RNA in an aqueous solution containing 25 mM potassium phosphate (pH 6.2), 150 mM KCl, 3 mM MgCl2, and 10% D2O. RNA–ligand molar ratios of 1:50 and 1:100 were explored (with 6 and 3 μM RNA, respectively). […] The water signal was suppressed from one-dimensional experiments with a watergate sequence. The CPMG experiments were acquired with 100, 200, 300, and 400 ms relaxation delays before acquisition, and water suppression was achieved by presaturation. wLOGSY experiments employed a selective Gaussian 180° pulse at the water frequency and an NOE mixing time of 1.5 s and suppressed the water signal by excitation sculpting. All spectra were acquired in the absence and presence of RNA.
All ligand signals were individually analyzed. For clomiphene citrate, the signals corresponding to cis and trans forms were identified by comparing the spectrum of clomiphene citrate with those of the individual stereoisomers. In CPMG experiments, the binding of the compounds to the different RNA sequences was quantified as 100 minus the percentage of ligand signal area in the +RNA CPMG spectrum relative to the corresponding signal area in the -RNA CPMG spectrum. In wLOGSY experiments, binding was quantified with the LOGSY factor, or % of ligand signal in the difference spectrum between the +RNA and –RNA wLOGSY spectra, relative to the corresponding signal in the one-dimensional -RNA reference spectrum. In one-dimensional experiments, line broadening (LB) was quantified as explained for CPMG spectra.

[7] = in vitro; details: human, uninfected 293T-ACE2 cells
[8] = system: ORF7b RNA; assay: ligand-based 1H NMR (1D, CPMG, wLOGSY); assay type: binding, SARS-CoV-2
[9] = average of aliphatic protons, RNA:ligand 1:100 (clomiphene) or 1:50 (trim, qz2)
[10] = average of aromatic protons, RNA:ligand 1:100 (clomiphene) or 1:50 (trim, qz2)

## CC(C)CCN1CCC(CNc2nc3ccccc3c(=O)[nH]2)CC1 [qz2]
[1]; [9]
  LB: -2.14%
  LOGSY factor: 4.45%
[1]; [10]
  CPMG variation: 10.7%
  LB: 13.1%
  LOGSY factor: 11.5%
[1]; qz2 peak A, RNA:ligand 1:50
  CPMG variation: -13.7%
  LB: -2.06%
  LOGSY factor: 2.25%
[1]; qz2 peak C/D, RNA:ligand 1:50
  CPMG variation: -16.2%
  LB: -4.34%
  LOGSY factor: 7.61%
[1]; qz2 peak E/B, RNA:ligand 1:50
  CPMG variation: -19.5%
  LB: 7.16%
  LOGSY factor: 3.76%
[1]; qz2 peak F, RNA:ligand 1:50
  CPMG variation: -4.16%
  LB: -9.61%
  LOGSY factor: 3.95%
[1]; qz2 peak G, RNA:ligand 1:50
  CPMG variation: -11.4%
  LB: -3.71%
  LOGSY factor: 4.70%
[1]; qz2 peak I, RNA:ligand 1:50
  CPMG variation: 11.7%
  LB: 11.8%
  LOGSY factor: 15.1%
[1]; qz2 peak J, RNA:ligand 1:50
  CPMG variation: 11.1%
  LB: 21.8%
  LOGSY factor: 16.0%
[1]; qz2 peak K, RNA:ligand 1:50
  CPMG variation: 8.91%
  LB: 5.71%
  LOGSY factor: 3.38%
[2]
  CC50 at 2 days: > 20 µM
[3]; [9]
  CPMG variation: -0.71%
  LB: 1.30%
  LOGSY factor: 3.15%
[3]; [10]
  CPMG variation: 10.3%
  LB: 6.50%
  LOGSY factor: 11.1%
[3]; qz2 peak A, RNA:ligand 1:50
  CPMG variation: 6.71%
  LB: 4.87%
  LOGSY factor: 1.60%
[3]; qz2 peak C/D, RNA:ligand 1:50
  CPMG variation: -1.93%
  LB: 2.61%
  LOGSY factor: 3.32%
[3]; qz2 peak E/B, RNA:ligand 1:50
  CPMG variation: -10.6%
  LB: 11.4%
  LOGSY factor: 6.11%
[3]; qz2 peak F, RNA:ligand 1:50
  CPMG variation: 6.38%
  LB: -12.7%
  LOGSY factor: 2.81%
[3]; qz2 peak G, RNA:ligand 1:50
  CPMG variation: -1.76%
  LB: 4.32%
  LOGSY factor: 1.92%
[3]; qz2 peak I, RNA:ligand 1:50
  CPMG variation: 10.3%
  LB: 11.5%
  LOGSY factor: 5.19%
[3]; qz2 peak J, RNA:ligand 1:50
  CPMG variation: 9.16%
  LB: 11.3%
  LOGSY factor: 9.42%
[3]; qz2 peak K, RNA:ligand 1:50
  CPMG variation: 11.6%
  LB: -3.23%
  LOGSY factor: 18.7%
[4]; 293T-ACE2, MOI 2, 8-h single cycle, added at +2 h relative to infection
  nucleocapsid protein expression: strongly inhibited
[4]; 293T-ACE2, MOI 2, relative to infection
  time of addition with maximum inhibition: -2 h
[5]; [9]
  CPMG variation: -3.85%
  LB: -0.01%
  LOGSY factor: 2.85%
[5]; [10]
  CPMG variation: 4.67%
  LB: 1.97%
  LOGSY factor: 5.80%
[5]; qz2 peak A, RNA:ligand 1:50
  CPMG variation: 3.62%
  LB: 6.29%
  LOGSY factor: 1.74%
[5]; qz2 peak C/D, RNA:ligand 1:50
  CPMG variation: -2.36%
  LB: -0.32%
  LOGSY factor: 3.84%
[5]; qz2 peak E/B, RNA:ligand 1:50
  CPMG variation: -11.8%
  LB: 8.30%
  LOGSY factor: 4.57%
[5]; qz2 peak F, RNA:ligand 1:50
  CPMG variation: -1.52%
  LB: -13.0%
  LOGSY factor: 2.30%
[5]; qz2 peak G, RNA:ligand 1:50
  CPMG variation: -3.33%
  LB: 3.46%
  LOGSY factor: 1.79%
[5]; qz2 peak I, RNA:ligand 1:50
  CPMG variation: 4.89%
  LB: 5.64%
  LOGSY factor: 6.13%
[5]; qz2 peak J, RNA:ligand 1:50
  CPMG variation: 5.88%
  LB: -6.27%
  LOGSY factor: 7.22%
[5]; qz2 peak K, RNA:ligand 1:50
  CPMG variation: 3.01%
  LB: 6.54%
  LOGSY factor: 4.04%
[6]
  RNA binding preference: bound to the ORF7b element only
[7]
  CC50 at 2 days: > 6.6 µM
[8]; [9]
  LB: -7.94%
  LOGSY factor: 6.35%
[8]; [10]
  CPMG variation: 50.7%
  LB: 26.2%
  LOGSY factor: 33.7%
[8]; qz2 peak A, RNA:ligand 1:50
  CPMG variation: -33.2%
  LB: -5.02%
  LOGSY factor: 3.94%
[8]; qz2 peak C/D, RNA:ligand 1:50
  CPMG variation: -34.1%
  LB: -10.7%
  LOGSY factor: 9.65%
[8]; qz2 peak E/B, RNA:ligand 1:50
  CPMG variation: -16.1%
  LB: -1.09%
  LOGSY factor: 5.54%
[8]; qz2 peak F, RNA:ligand 1:50
  CPMG variation: -4.16%
  LB: -14.4%
  LOGSY factor: 6.18%
[8]; qz2 peak G, RNA:ligand 1:50
  CPMG variation: -19.2%
  LB: -8.90%
  LOGSY factor: 6.45%
[8]; qz2 peak I, RNA:ligand 1:50
  CPMG variation: 48.3%
  LB: 30.9%
  LOGSY factor: 7.00%
[8]; qz2 peak J, RNA:ligand 1:50
  CPMG variation: 45.5%
  LB: 38.3%
  LOGSY factor: 76.3%
[8]; qz2 peak K, RNA:ligand 1:50
  CPMG variation: 58.5%
  LB: 9.52%
  LOGSY factor: 17.9%
